# Test results taken from patent US20250283052A1, “THERAPEUTIC NK CELL POPULATIONS” (Gamida Cell Ltd., priority 2021, published 2025).
# How the values were obtained:
# [1] = test system: CD200R; test: CD200R immunophenotyping of expanded NK cells (FACS); type: cell-based; settings: 2 weeks culture without NAM or with 2.5, 5 or 7 mM NAM (FIG. 3)
# Method: Cells were cultured for 2 weeks without NAM and with 2.5 mM, 5 mM NAM or 7 mM NAM. Samples for staining against CD200R were analyzed by FACS.
# The immune checkpoint receptors, CD200R and Programmed Death receptor-1 (PD-1), are exploited by tumor cells which overexpress their ligands to suppress lymphocytes anti-tumor activity. The effect of expansion with nicotinamide (NAM) on expression of immune checkpoint receptors in NK cells was assessed.
# [2] = test system: CD62L; test: CD62L staining 2 hours post-thaw (FACS); type: cell-based; settings: culturing in 7 mM NAM; 2 hours post-thaw (FIG. 2)
# Method: The cells were thawed, and 2 hours post-thaw were sampled for staining against CD62L and analyzed by FACS. Assays for adhesion and migration molecules such as CD62L, CXCR-4, CD49e and the like, important for homing/engraftment and retention of cells in transplantation, are well known in the art. CD62L expression in a cell can be assayed, for example, by flow cytometry, immunodetection, quantitative cDNA amplification, hybridization and the like. In one embodiment, CD62L expression is detected in different populations of NK cells by exposure of the cells to a fluorescent-tagged specific anti-human CD62L monoclonal antibody [e.g., CD62L PE, Cat. No. 304806 from BioLegend (San Diego, CA, USA)], and sorting of the cells by fluorescent activated cell sorting (FACS). After 2 weeks in culture according to the methods of the invention, a modified procedure using inactivated autologous CD3+ cells as feeder, supplemented with OKT3 and NAM, led to an improved fold expansion, which increased the total number of viable cells obtained at harvest. The functionality of the cells in killing and ADCC was assessed by combination of NK cells with target cells BL2 (Burkitt lymphoma cell line)—at different ratios. […]
structure (smiles),measurement,setting,value
"NC(=O)c1cccnc1 [NAM, nicotinamide]",expression of CD200R on expanded NK cells,[1],down regulated
same,expression of CD62L,[2],increased expression of CD62L
